Assay results taken from US12655184B2, “Labyrinthin-based peptides for cancer immunotherapies and uses thereof” (LABYRX IMMUNOLOGIC THERAPEUTICS (USA) LIMITED, priority 2018, dated 2026).
Ends that are not written are not given here.

Assays:
Assay type in all cases: physicochemical
[1] = solubility by visual examination in ultrapure water, PBS and DMSO; conditions: for Solubility, PBS (pH 7.4): 0.1 M PBS pH 7.4, visual examination
Description: The solubility of each labyrinthin-derived peptide candidate was assessed by visual examination in ultrapure water, 0.1 M PBS (PBS; pH 7.4), and dimethyl sulfoxide (DMSO; analytical grade). As reported in Table 4, a solubility of less than 0.1 mg/mL of solvent was defined as “Undissolved” and solubility of greater than or 0.1 mg/mL was defined as “Dissolved.” The concentration range of measured solubility is provided under the “Dissolved” classification where available (Table 4).

[2] = solubility in phosphate buffer with/without 0.9% NaCl, pH serially lowered with acetic acid, concentration remaining in solution
Description: In further solubility testing, two tubes of 1.1 mg peptide for each of the four candidate peptides target was dissolved into 1 mL phosphate buffer (pH 10) (with and without 0.9% NaCl). The peptide solutions were subsequently stored at 4° C. for several hours to dissolve the peptides thoroughly. Following centrifugation, the peptide concentration that remained in solution was measured. The solubility of all four peptide candidates under all tested condition in Table 6 as above 0.3 mg/mL, and for each peptide candidate the variability of solubility across the pH ranges tested was minimal.

[3] = solubility tests in DMSO, normal saline and 0.2 M NaCl by visual examination; conditions: for Solubility (dissolved Yes/No), 0.2M Sodium (NaCl): 0.2 M NaCl; for Solubility (dissolved Yes/No), 0.154M Sodium (NaCl): normal saline, 0.154 M NaCl
Description: Additional testing was completed to attempt to overcome the above-identified solubility issues. Results of the solubility tests performed for each labyrinthin-derived peptide candidate (SEQ ID NOS:29-32) are shown in Table 5. In short, all peptides were again dissolved in DMSO, confirming that the peptides had the capacity to dissolve in solution. Peptide solubility was then tested in normal saline (0.154 M sodium (NaCl)) and 0.2 M sodium (NaCl). Normal saline is generally an option as a solvent/diluent as use for such purpose is accepted by the […]. […] Additional solutions were tested to determine an alternative diluent to solubilize the candidate peptides, as determined by visual examination.

[4] = DMSO analytical grade, visual examination, read-out: Solubility, DMSO
[5] = DMSO, read-out: concentration range of measured solubility, DMSO
[6] = pH 7.4, 0.1 M PBS pH 7.4, visual examination, read-out: Solubility, PBS (pH 7.4)
[7] = pH 7.4, 0.1 M PBS pH 7.4, read-out: concentration range of measured solubility, PBS (pH 7.4)
[8] = ultrapure water, visual examination
[9] = ultrapure water, visual examination, read-out: Solubility, Ultrapure water
[10] = pH 4, PBS with 0.9% NaCl, pH 4, read-out: Solubility pH 4
[11] = pH 4, PBS without NaCl, pH 4, read-out: Solubility pH 4
[12] = pH 5, PBS with 0.9% NaCl, pH 5, read-out: Solubility pH 5
[13] = pH 5, PBS without NaCl, pH 5, read-out: Solubility pH 5
[14] = pH 5.5, PBS with 0.9% NaCl, pH 5.5, read-out: Solubility pH 5.5
[15] = pH 5.5, PBS without NaCl, pH 5.5, read-out: Solubility pH 5.5
[16] = pH 6, PBS with 0.9% NaCl, pH 6, read-out: Solubility pH 6
[17] = pH 6, PBS without NaCl, pH 6, read-out: Solubility pH 6
[18] = pH 6.5, PBS with 0.9% NaCl, pH 6.5, read-out: Solubility pH 6.5
[19] = pH 6.5, PBS without NaCl, pH 6.5, read-out: Solubility pH 6.5
[20] = pH 7, PBS with 0.9% NaCl, pH 7, read-out: Solubility pH 7
[21] = pH 7, PBS without NaCl, pH 7, read-out: Solubility pH 7
[22] = pH 7.5, PBS with 0.9% NaCl, pH 7.5, read-out: Solubility pH 7.5
[23] = pH 7.5, PBS without NaCl, pH 7.5, read-out: Solubility pH 7.5
[24] = pH 8, PBS with 0.9% NaCl, pH 8, read-out: Solubility pH 8
[25] = pH 8, PBS without NaCl, pH 8, read-out: Solubility pH 8
[26] = pH 8.5, PBS with 0.9% NaCl, pH 8.5, read-out: Solubility pH 8.5
[27] = pH 8.5, PBS without NaCl, pH 8.5, read-out: Solubility pH 8.5
[28] = pH 9, PBS with 0.9% NaCl, pH 9, read-out: Solubility pH 9
[29] = pH 9, PBS without NaCl, pH 9, read-out: Solubility pH 9
[30] = pH 10, PBS with 0.9% NaCl, pH 10, read-out: Solubility pH 10
[31] = pH 10, PBS without NaCl, pH 10, read-out: Solubility pH 10

| Sequence | solubility [1, 4] [µg/mL] | solubility [1, 6] [µg/mL] | solubility [1, 9] [µg/mL] | solubility [2, 10] [µg/mL] | solubility [2, 11] [µg/mL] | solubility [2, 12] [µg/mL] | solubility [2, 13] [µg/mL] | solubility [2, 14] [µg/mL] | solubility [2, 15] [µg/mL] | solubility [2, 16] [µg/mL] | solubility [2, 17] [µg/mL] | solubility [2, 18] [µg/mL] | solubility [2, 19] [µg/mL] | solubility [2, 20] [µg/mL] | solubility [2, 21] [µg/mL] | solubility [2, 22] [µg/mL] | solubility [2, 23] [µg/mL] | solubility [2, 24] [µg/mL] | solubility [2, 25] [µg/mL] | solubility [2, 26] [µg/mL] | other results |
| --- | --- | --- | --- | --- | --- | --- | --- | --- | --- | --- | --- | --- | --- | --- | --- | --- | --- | --- | --- | --- | --- |
| DMEEMMSEQENPDSSEPVVEDE [SEQ ID NO: 30] | > 100 | > 100 | < 100 | 496 | 647 | 510 | 669 | 510 | 667 | 529 | 674 | 498 | 673 | 539 | 710 | 555 | 712 | 542 | 720 | 540 | solubility [1, 5]: ≤ 10000 µg/mL; solubility [1, 7]: ≤ 10000 µg/mL; Solubility, Ultrapure water [1, 8]: undissolved; solubility [2, 27]: 730 µg/mL; solubility [2, 28]: 548 µg/mL; solubility [2, 29]: 738 µg/mL; solubility [2, 30]: 552 µg/mL; solubility [2, 31]: 726 µg/mL; Solubility (dissolved Yes/No), 0.2M Sodium (NaCl) [3]: Yes; Solubility (dissolved Yes/No), DMSO [3]: Yes; Solubility (dissolved Yes/No), 0.154M Sodium (NaCl) [3]: Yes |
| NEGIEITEVTAPPEDNPVEDSQ [SEQ ID NO: 31] | > 100 | < 100 | < 100 | 806 | 777 | 813 | 802 | 826 | 819 | 833 | 773 | 831 | 769 | 838 | 825 | 852 | 812 | 861 | 847 | 848 | Solubility, PBS (pH 7.4) [1]: did not improve solubility; solubility [1, 5]: ≤ 5000 µg/mL; Solubility, Ultrapure water [1, 8]: undissolved; solubility [2, 27]: 854 µg/mL; solubility [2, 28]: 866 µg/mL; solubility [2, 29]: 857 µg/mL; solubility [2, 30]: 881 µg/mL; solubility [2, 31]: 849 µg/mL; Solubility (dissolved Yes/No), 0.2M Sodium (NaCl) [3]: Yes; Solubility (dissolved Yes/No), DMSO [3]: Yes; Solubility (dissolved Yes/No), 0.154M Sodium (NaCl) [3]: No; Solubility (dissolved Yes/No), 0.154M Sodium (NaCl) ([3]; listed as SEQ ID NO:31): did not dissolve |
| GEDLQQEDGPTGEPQQEDDEFL [SEQ ID NO: 29] | > 100 | > 100 | > 100 | 687 | 731 | 694 | 738 | 695 | 738 | 695 | 742 | 706 | 753 | 701 | 748 | 703 | 757 | 707 | 756 | 702 | solubility [1, 7]: ≤ 10000 µg/mL; solubility ([1]; ultrapure water, read-out: concentration range of measured solubility, Ultrapure water): ≤ 10000 µg/mL; solubility [2, 27]: 762 µg/mL; solubility [2, 28]: 707 µg/mL; solubility [2, 29]: 757 µg/mL; solubility [2, 30]: 708 µg/mL; solubility [2, 31]: 765 µg/mL; Solubility (dissolved Yes/No), 0.2M Sodium (NaCl) [3]: Yes; Solubility (dissolved Yes/No), DMSO [3]: Yes; Solubility (dissolved Yes/No), 0.154M Sodium (NaCl) [3]: Yes |
| DSQVIVEEVSIFPVEEQQEVPPD [SEQ ID NO: 32] | > 100 | < 100 | < 100 | 382 | 387 | 401 | 397 | 412 | 337 | 411 | 404 | 406 | 407 | 412 | 402 | 412 | 415 | 415 | 421 | 433 | Solubility, PBS (pH 7.4) [1]: did not improve solubility; solubility [1, 5]: ≤ 10000 µg/mL; Solubility, Ultrapure water [1, 8]: undissolved; solubility [2, 27]: 424 µg/mL; solubility [2, 28]: 426 µg/mL; solubility [2, 29]: 445 µg/mL; solubility [2, 30]: 413 µg/mL; solubility [2, 31]: 419 µg/mL; Solubility (dissolved Yes/No), 0.2M Sodium (NaCl) [3]: Yes; Solubility (dissolved Yes/No), DMSO [3]: Yes; Solubility (dissolved Yes/No), 0.154M Sodium (NaCl) [3]: No; Solubility (dissolved Yes/No), 0.154M Sodium (NaCl) ([3]; listed as SEQ ID NO:32): did not dissolve |
